Experimental data: US5846942A, “Cholecystokinin antagonists, their preparation and therapeutic use” (Warner-Lambert Company, priority 1996, dated 1998)

The compounds below were run against T1, Central CCK Receptors (Mus musculus, UniProt P56481) (assay: Binding to central CCK receptors, displacement of tritiated pentagastrin from cerebral cortical membranes of male CFLP mice). Details: cerebral cortexes taken from male CFLP mice; 2 nM tritiated-pentagastrin.
T1 construct: from tissue; host or cells: cerebral cortex membranes of male CFLP mice (30-40 g)
T1 sequence (P56481 1-453): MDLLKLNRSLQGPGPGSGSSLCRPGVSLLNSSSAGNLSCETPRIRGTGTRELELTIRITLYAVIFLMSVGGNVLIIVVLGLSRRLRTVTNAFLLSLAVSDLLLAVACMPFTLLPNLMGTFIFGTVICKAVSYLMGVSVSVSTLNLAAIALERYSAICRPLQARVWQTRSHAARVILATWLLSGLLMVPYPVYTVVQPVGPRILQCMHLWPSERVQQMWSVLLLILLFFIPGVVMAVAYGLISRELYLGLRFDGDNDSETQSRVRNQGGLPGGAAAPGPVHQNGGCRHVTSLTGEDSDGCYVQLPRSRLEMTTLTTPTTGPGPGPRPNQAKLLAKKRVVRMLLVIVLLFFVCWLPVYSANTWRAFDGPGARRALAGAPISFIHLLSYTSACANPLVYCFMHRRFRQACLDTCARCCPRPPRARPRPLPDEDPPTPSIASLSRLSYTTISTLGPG
Set-up: species or system mouse (male CFLP)
Protocol: The biological activity of compounds of the present invention was evaluated employing an initial screening test which rapidly and accurately measured the binding of the tested compound to known CCK receptor sites. […] (See Hays et al, Neuropeptides 1:53-62, 1980; and Satuer et al, Science 208:1155-1156, 1980).
In this screening test, the cerebral cortices taken from male CFLP mice weighing between 30-40 g were dissected on ice, weighed, and homogenized in 10 volumes of 50 mM Tris-HCl buffer (pH 7.4 at 0°-4° C.). The resulting suspension was centrifuged, the supernate was discarded, and the pellet was washed by resuspension in Tris-HCl buffer followed by recentrifugation. The final pellet was resuspended in 20 volumes of […] Hepes buffer (pH 7.2 at 23° C.) containing 130 mM NaCl, […] KCl, […] MgCl2, […] EDTA, 5 mg/mL bovine albumin, and bacitracin (0.25 mg/mL).
In saturation studies, cerebral cortical membranes were incubated at 23° C. for 120 minutes in a final volume of 500 μL of Hepes incubation buffer (pH 7.2) together with […] tritiated-pentagastrin (Amersham International, England).
In the displacement experiments, membranes were incubated with a single concentration (2 nM) of ligand, together with increasing concentrations (10^-11 to […]) of competitive test compound. In each case, the nonspecific binding was defined as that persisting in the presence of the unlabeled octapeptide CCK26-33 (10^-6 M)
Following incubation, radioactivity bound to membranes was separated from that free in solution by rapid filtration through Whatman GF/B filters and washed three times with 4 mL of ice cold Tris-HCl buffer. Filters from samples incubated with tritiated-pentagastrin were placed in polyethylene vials with 4 mL of scintillation cocktail, and the radioactivity was estimated by liquid scintillation spectrometry (efficiency 47-52%).
Saturation curves for specific tritiated- pentagastrin binding to mouse cortical membranes were analyzed by the methods of Scatchard (Ann. New York Acad. Sci. 51:660-672, 1949, and Hill (J. Physiol. 40:IV-VIII, 1910), to provide estimates for the maximum number of binding sites (Bmax) and the equilibrium dissociation constant (Ka).
In displacement experiments, inhibition curves were analyzed by either logit-log plots or the iterative curve fitting computer program ALLFIT (DeLean, Munson and Redbard, 1978) to provide estimates of the IC50 and nH (apparent Hill coefficient) values).
The inhibition constant (Ki) of the test compound was then calculated according to the Cheng-Prusoff equation: [formula] where [L] is the concentration of radiolabel and Ka is the equilibrium dissociation constant.

Row | Ki [nM] | Compound
1 | 93 | CC(CNC(=O)OC1C2CC3CC(C2)CC1C3)(Cc1c[nH]c2ccccc12)C(=O)N[C@H](COC(=O)CCC(=O)O)Cc1ccccc1 (some centres unmarked) [Example 57]
2 | 92 | C[C@](Cc1c[nH]c2ccccc12)(NC(=O)OC1C2CC3CC(C2)CC1C3)C(=O)NCCC(=O)N[C@@H](Cc1ccccc1)C(N)=O (stereo partly drawn) [Example 26, L-Phenylalaninamide, α-methyl-N-[(tricyclo [3.3.1.1^3,7]-dec-2-yloxy)carbonyl]-D-tryptophvl-β-alanyl-]
3 | 493 | C[C@](CNC(=O)c1ccccc1)(Cc1c[nH]c2ccccc12)NC(=O)OC1C2CC3CC(C2)CC1C3 (stereo partly drawn) [Example 20, Carbamic acid, [2-(benzoylamino)-1-(1H-indol-3-ylmethyl)-1-methylethyl]-, tricyclo[3.3.1.1^3,7]dec-2-yl ester, (R)-]
4 | 240 | COC(=O)[C@@H](Cc1ccccc1)NC(=O)CCNC(=O)[C@@](C)(Cc1c[nH]c2ccccc12)NC(=O)OC1C2CC3CC(C2)CC1C3 (stereo partly drawn) [Example 29, 12-Oxa-2,5,9-triazatridecanoic acid, 3-(1H-indol-3-ylmethyl)-3-methyl-4.8.11-trioxo-10-(phenvlmethyl)-, tricyclo[3.3.1.1^3,7]dec-2-vl ester, [R-(R*,R*)]-]
5 | 942 | C[C@](CC(=O)N[C@H](C(=O)O)c1ccccc1)(Cc1c[nH]c2ccccc12)NC(=O)OC1C2CC3CC(C2)CC1C3 (stereo partly drawn) [Example 90, N-[D-3-(1H-indol-3-ylmethyl)-3-methyl-N-[(tricyclo [3.3.1.1^3,7]dec-2-yloxy)carbonyl]-β-alanyl]-L-2-phenylglycine]
6 | 17 | C[C@](CC(=O)OCc1ccccc1)(Cc1c[nH]c2ccccc12)NC(=O)OC1C2CC3CC(C2)CC1C3 (some centres unmarked) [Example 17]
7 | > 10000 | C[C@](Cc1c[nH]c2ccccc12)(NC(=O)OC1C2CC3CC(C2)CC1C3)C(=O)NCCC(=O)N[C@@H](Cc1ccccc1)C(=O)OCc1ccccc1 (stereo partly drawn) [Example 30, L-Phenylalanine,N-[N-[α-methyl-N-[(tricyclo[3.3.1.1^3,7]dec-2-yloxy)carbonyl]-d-tryotoohyl]-β-alanyl]-phenylmethyl ester]
8 | 73 | COC[C@@H]1CCCN1NC(=O)[C@@](C)(Cc1c[nH]c2ccccc12)NC(=O)OC1C2CC3CC(C2)CC1C3 (stereo partly drawn) [Example 112, Tricyclo[3.3.1.1^3.7]dec-2-yl ester [2S-(R*,S*)1 N-[1-(1H-indol-3-ylmethyl)-2-[[2-(methoxymethyl)-1-pyrrolidinyl]amino]-1-methyl-2-oxoethyl]carbamate]
9 | 374 | CC(=O)OC[C@H](Cc1ccccc1)NC[C@@](C)(Cc1c[nH]c2ccccc12)NC(=O)OC1C2CC3CC(C2)CC1C3 (relative stereo) [Example 7, [R-(R*,S*)]-β-[[2-(1H-indol-3-ylmethyl)-2-[[tricyclo-[3.3.1.1^3,7]dec-2-yloxvcarbonyl]amino]propyl]amino]-benzenepropanol acetate]
10 | 550 | C[C@](Cc1c[nH]c2ccccc12)(NC(=O)OC1C2CC3CC(C2)CC1C3)C(=O)NCCC(=O)N[C@H](Cc1ccccc1)C(N)=O (stereo partly drawn) [Example 25, D-Phenylalanamide, α-methyl-N-[(tricyclo[3.3.1.1^3,7]-dec-2-yloxv)carbonyl]-D-tryotophyl-β-alanyl-]
11 | 1100 | C[C@@](Cc1c[nH]c2ccccc12)(NC(=O)OC1C2CC3CC(C2)CC1C3)C(=O)NCCC(=O)N[C@H](CO)Cc1ccccc1 (relative stereo) [Example 24, Carbamic acid, [1-(1H-indol-3-ylmethyl)-2-[[3-[[1-hydroxymethyl)-2-iphenylethyl]amino]-3-oxopropyl]-amino]-1-methyl-2-oxoethyl]-, tricyclo[3.3.1.1^3,7]dec-2-ylester, [S-(R*,R*)]-]
12 | 910 | C[C@@](Cc1c[nH]c2ccccc12)(NC(=O)OC1C2CC3CC(C2)CC1C3)C(=O)NCCC(=O)N[C@@H](Cc1ccccc1)C(N)=O (stereo partly drawn) [Example 27, L-Phenylalaninamide α-methyl-N-[(tricyclo[3.3.1.1^3,7]-dec-2-yloxy)carbonyl]-L-tryptophy-β-alanyl-]
13 | 800 | C[C@](Cc1c[nH]c2ccccc12)(NC(=O)OC1C2CC3CC(C2)CC1C3)C(=O)NCCC(=O)N[C@H](CO)Cc1ccccc1 (stereo partly drawn) [Example 23, Carbamic acid, [2-[[3-[[1-(hydroxymethyl)-2-phenyl-ethyl]amino]-3-oxopropyl]amino]-1-(1H-indol-3-ylmethyl)-1-methyl-2-oxoethyl]-, tricyclo-[3.3.1.1^3,7]dec-2-vl ester. [R-(R*.S*)]-]
14 | 318 | CC(=O)N(C[C@@](C)(Cc1c[nH]c2ccccc12)NC(=O)OC1C2CC3CC(C2)CC1C3)[C@H](CO)Cc1ccccc1 (stereo partly drawn) [Example 8, Tricyclo[3.3.1.1^3,7]dec-2-yl[R-(R*,S*)]-[acetyl[1-(hydroxymethyl)-2-phenylethyl]amino]-2-(1H-indol-3-ylmethyl)prop-2-ylcarbamate]
15 | 180 | C[C@](Cc1c[nH]c2ccccc12)(NC(=O)OC1C2CC3CC(C2)CC1C3)C(=O)NC1(CO)CCCC1 (stereo partly drawn) [Example 119, Tricyclo[3.3.1.1^3,7]dec-2-yl ester (R) [2-[[1-(hydroxymethyl)cyclopentyl]amino]-1-(1H-indol-3-ylmethyl)-1-methyl-2-oxoethyl]carbamate]
16 | 1120 | O=C(N[C@H](CN[C@H](CO)Cc1ccccc1)Cc1c[nH]c2ccccc12)OC1C2CC3CC(C2)CC1C3 (some centres unmarked) [Example 2]
17 | 103 | C[C@](Cc1c[nH]c2ccccc12)(NC(=O)OC1C2CC3CC(C2)CC1C3)C(=O)NCCC(=O)N[C@H](Cc1ccccc1)C(=O)O (stereo partly drawn) [Example 32, D-Phenylalanine, N-[N-[α-methyl-N-[(tricyclo-[3.3.1.1^3,7]dec-2-yloxy)carbonyl]-D-tryptophyl]-β-alanyl]-]
18 | 540 | C[C@@](Cc1c[nH]c2ccccc12)(NC(=O)OC1C2CC3CC(C2)CC1C3)C(=O)NCCC(=O)N[C@H](Cc1ccccc1)C(=O)O (stereo partly drawn) [Example 35, Benzenepropanoic acid, α-[[3-[[3-[(1H-indol-3-yl)-2-methyl-1-oxo-2-[[(tricyclo[3.3.1.1^3,7]dec-2-yloxy)-carbonyl]amino]propyl]amino]-1-oxopropyllamino-, [S-(R*,S*)]-]
19 | 39 | CC1CCCCC1NC(=O)C(C)(Cc1c[nH]c2ccccc12)NC(=O)OC1C2CC3CC(C2)CC1C3 (centres unmarked) [Example 117, Tricyclo[3.3.1.1^3,7]dec-2-yl ester[1-(1H-indol-3-ylmethyl)-1-methyl-2[(2-methylcyclohexyl)amino]-2-oxoethyl]carbamate]
20 | 200 | C[C@](CN[C@H](CO)Cc1ccccc1)(Cc1c[nH]c2ccccc12)NC(=O)OC1C2CC3CC(C2)CC1C3 (stereo partly drawn) [Example 6, Tricyclo[3.3.1.1^3,7]dec-2-yl[R-(R*,S*)]-1-[[1(hydroxy-methyl)-2-phenylethyl]amino]-3-(1H-indol-3-yl)-2-methylprop-2-ylcarbamate]
21 | 220 | CC(CNCC(O)c1ccccc1)(Cc1c[nH]c2ccccc12)NC(=O)OC1C2CC3CC(C2)CC1C3 (centres unmarked) [Example 5, Tricyclo[3.3.1.1^3,7]dec-2-yl [1-[(2-hydroxy-2-phenyl-ethyl)amino]-3-(1H-indol-3-yl)-2-methylprop-2-yl]-carbamate]
22 | 22 | C[C@](Cc1c[nH]c2ccccc12)(NC(=O)OC1C2CC3CC(C2)CC1C3)C(=O)NCCC(=O)N[C@@H](Cc1ccccc1)C(=O)O (stereo partly drawn) [Example 33, S-Phenylalanine N-[N-[α-methyl-N-[(tricyclo-[3.3.1.1^3,7]dec-2-yloxy)carbonyl]-R-tryptophyl]-β-alanyl]]
23 | 40 | C[C@](Cc1c[nH]c2ccccc12)(NC(=O)OC1C2CC3CC(C2)CC1C3)C(=O)NC1(C(=O)O)CCCCC1 (stereo partly drawn) [Example 120, (R)-1-[[2-(1H-indol-3-ylmethyl)-2-methyl-1-oxo-2-[[(tricyclo[3.3.1.1^3,7]dec-2-yloxy)carbonyl]amino]ethyl]amino]cyclohexanoic acid]
